Series [1] deals with human cervical carcinoma cell line HeLa. In words: MTS cytotoxicity assay, HeLa. It is filed as cell-based. The settings on record: for IC50: Homo sapiens, HeLa, 48 h treatment; for activity against the HeLa cell line, in words: Indo 5 as reference. An excerpt:
(§1) To investigate the relationship between anticancer activity and tyrosine kinase inhibitory activity, these compounds were further evaluated for in vitro cytotoxicity against five cancer cell lines (human cervical carcinoma cell line HeLa, human breast carcinoma cell line MCF-7, human liver carcinoma cell line HepG2, human tongue carcinoma cell line SCC-15, and human lung carcinoma A549) using MTS assay. Indo 5 was also used as a reference compound.
(§2) The five types of human cancer cell lines (HeLa, HepG2, MCF-7, SCC-15, and A549) were cultured aseptically using Dulbecco’s modified Eagle’s medium (DMEM) supplemented with 10% (v/v) fetal bovine serum (FBS) and penicillin (100 units mL^−1)/streptomycin ([…]), at pH 7.2 and 5% CO2 humidified atmosphere at 37 °C. After attaining 80% confluence, the cells were trypsinized with 0.25 trypsin–EDTA and diluted with media to a fixed number of cells.
(§3) Cytotoxic activity was assessed using the standard MTS method by using triplicate assay. The cells were seeded into 96-well plates containing the medium at the density of 4000–6000 cells/mL (100 μL/well). The compounds were dissolved in DMSO to the concentration of 100 mM and diluted in a culture medium to the concentrations needed. After 24 h, the cultured cells were treated with concentrations of synthesized compounds (3.125 μM to 100 μM for tumor cells) for 48 h. After 48 h of incubation, the supernatant was replaced by fresh medium (100 μL/well) and 10 μL MTS reagent ([3-(4,5-dimethylthiazol-2-yl)-5-(3-carboxymethoxyphenyl)-2-(4-sulfophenyl)-2H-tetrazolium, inner salt]) was added to each well. The plate was further incubated for 3 h at 37 °C in 5% CO2. The optical absorbance in individual wells was determined at 492 nm using a microplate reader. The inhibition rates were calculated by the following formula: Inhibition rate (%) = (ODnegative control − ODsample)/(ODnegative control − ODblank) × 100%
(§4) IC50 was calculated using GraphPad Prism Software (GraphPad Prism 5, La Jolla, CA, USA). For each concentration, at least three wells were performed to calculate the average parameter.

The target of series [2] is tyrosine kinase. The series is described as follows: Tyrosine kinase inhibitory activity assay (self-made ELISA kit). Format: biochemical. Particulars: tyrosine kinase tissue extract, 37 °C 30 min. On the procedure: The 16 designed compounds were first evaluated for tyrosine kinase inhibitory activity using ELISA assay. Indo 5 was used as a reference compound. The kit was self-made and is a very effective and economical method for preliminary tyrosine kinase inhibitory activity evaluation.
The tyrosine kinase inhibitory activity assay was performed as described in the literature. Details of the experimental procedures are presented in Supplementary Materials associated with this article. The IC50 was calculated using GraphPad Prism Software (GraphPad Prism 5, La Jolla, CA, USA). For each concentration, at least three wells were performed to calculate the average parameter.
100μL to each well. The plate was covered with its lid, and incubated at 4℃ overnight (10-12 hours). Then it was washed with 200μL elution buffer once, and dried at 37℃ for 2 h. After that, it was washed with 10mM PBS once, dried at room temperature, and then stored at 4℃ […]
2.1.5. Groups: Blank control: 60μL 1×tyrosine kinase buffer + 50μL 1×tyrosine kinase buffer containing ATP; Negative control: 10μL 1×tyrosine kinase buffer + 50μL 1×tyrosine kinase buffer containing tissue extract + 50μL 1×tyrosine kinase buffer containing ATP; Positive control: 10μL 1×tyrosine kinase buffer containing L029 + 50μL 1×tyrosine kinase buffer containing tissue extract + 50μL 1×tyrosine kinase buffer containing ATP; Vehicle control: 10μL 1×tyrosine kinase buffer containing DMSO + 50μL 1×tyrosine kinase buffer containing tissue extract + 50μL 1×tyrosine kinase buffer containing ATP; Compounds to be screened: 10μL 1×tyrosine kinase buffer containing compounds to be tested + 50μL 1× tyrosine kinase buffer containing tissue extract + 50μL 1×tyrosine kinase buffer containing ATP. (First, L029 and the compounds were allowed to interact with the tyrosine kinase tissue extract at room temperature for 10 min in advance, and did the same to the Blank control and the Vehicle control, then 50μL 1×tyrosine kinase buffer containing ATP was added to […]
2.1.6. Tyrosine kinase inhibitory activity assay: 1×tyrosine kinase buffer was prepared by evenly mixing 1 mL 10× tyrosine kinase buffer with 9 mL DDW. The tissue extract was diluted with 1×tyrosine kinase buffer appropriately, mixed with it gently and evenly, and placed on ice. ATP stock solution was mixed with 1×tyrosine kinase buffer at the final concentration of 3mM , and placed on ice. The microplate was added in respective wells with the groups formulated as above, covered with the lid, and incubated at 37℃ for 30 min. The microplate was washed with 200μL elution buffer and tapped until the residual buffer was removed, and this procedure was repeated for five times. To each well, 100μL antibody diluent (antibody elution buffer diluted at a ratio of 1:2000) was added. The microplate was covered with the lid, and incubated at room temperature for 30 min. OPD solution was prepared by addition of 4 mg OPD into a mixture of 4.86 mL 0.1 mol/L citric acid solution and 5.14 mL 0.2 mol/L Na2HPO4 solution, followed by addition of 50μL 30% H202 to allow for complete dissolution, and then was protected from light. The antibody solution was […]
removed. The microplate was washed with 200μL elution buffer and tapped until the residual buffer was removed, and this procedure was repeated for five times. 100μL freshly prepared OPD was added, and reacted at room temperature light tight for precisely 7 min. Negative […]
100μL 2.5 N H2SO4 was added to terminate the reaction. OD
2.1.7. Sample screening: Samples were screened preliminarily by using triplicate assay. The effect of the samples on tyrosine kinase inhibitory activity was tested, and the inhibition rate was calculated. Inhibition rate (%)=(ODnegative control – ODsample) / (ODnegative control* – ODblank) × 100%; *While calculating inhibition rate of positive drugs, ODnegative control in the equation was replaced with ODvehicle control to exclude the influence of DMSO on tyrosine kinase activity. […]
2. S. Praveen Kumar, Jiri Gut, Rita C. […]
(In general: An ELISA detects its analyte on a solid surface through an enzyme-linked reagent.)

Series [3] has as its system human breast carcinoma cell line MCF-7. In words: MTS cytotoxicity assay, MCF-7. It is filed as cell-based. The settings on record: for IC50: Homo sapiens, MCF7, 48 h treatment.
Excerpt: as §1, §2, §3, §4
On the technique in general: Tetrazolium dyes change colour on reduction, which living cells bring about.

Series [4] has as its system human lung carcinoma A549. The series is described as follows: MTS cytotoxicity assay, A549. The settings on record: Homo sapiens, A549, 48 h treatment. It is filed as cell-based.
Excerpt: as §1, §2, §3, §4

For series [5], the system named is human tongue carcinoma cell line SCC-15. In words: MTS cytotoxicity assay, SCC-15. Format: cell-based. The settings on record: for IC50: Homo sapiens, SCC-15, 48 h treatment.
Excerpt: as §1, §2, §3, §4

The test system of series [6] is human liver carcinoma cell line HepG2. In words: MTS cytotoxicity assay, HepG2. Format: cell-based. Particulars: for IC50: Homo sapiens, HepG2, 48 h treatment.
Excerpt: as §1, §2, §3, §4

Series [7] has as its system five human cancer cell lines (HeLa, HepG2, MCF-7, SCC-15, and A549). The series is described as follows: MTS cytotoxicity assay, across the cancer cell line panel. Format: cell-based. The settings on record: for IC50: Homo sapiens, average over the cancer cell lines, read-out: average IC50 value (antitumor potential); for anticancer / antiproliferative activity over the cell line panel, in words: MTS, Indo 5 as reference.
Excerpt: as §1, §2, §3, §4

By IC50 is commonly meant the concentration at which inhibition is half-maximal. The melting point is the temperature, or range, at which the solid turns liquid.

`O=C1Nc2ccc(Br)cc2/C1=C/[S+]([O-])Cc1ccccc1` (centres unmarked) [Compound 6o, (Z)-3-((Benzylsulfinyl)methylene)-5-bromoindolin-2-one] had a melting point of 200 to 201 °C. Further, in series [1], inhibition was half-maximal at 18.2 ± 0.66 µM (IC50) and the “activity against the HeLa cell line, in words” value is “stronger activity than Indo 5”. The compound also returned an IC50 in series [2] of 2.69 ± 0.29 µM. In series [3], the “activity against the MCF-7 cell line, in words” value was “good antitumor activity” and half-maximal inhibition (IC50) required 32.3 ± 0.77 µM. In addition, the IC50 in series [4] worked out at 54.9 ± 0.66 µM. In addition, in series [5], the “activity against the SCC-15 cell line, in words” value is “considerable cytotoxic activity” and the IC50 turned out to be 28.6 ± 1.58 µM. In series [6], the “activity against the HepG2 cell line, in words” value is “considerable cytotoxic activity” and half-maximal inhibition (IC50) required 54.4 ± 0.88 µM. For the same compound, in series [7], the IC50 was less than 40 µM and the “anticancer / antiproliferative activity over the cell line panel, in words” value is “comparable antiproliferative activity against four cancer cell lines compared with compound Indo 5”.

On to `O=C1Nc2ccccc2/C1=C/[S+]([O-])Cc1ccc(Br)cc1` (centres unmarked) [Compound 6j, (Z)-3-(((4-Bromobenzyl)sulfinyl)methylene)indolin-2-one], for which the melting point lay within 195 to 196 °C. The compound also gave an IC50 in series [1] of 24.1 ± 0.52 µM. Besides, the IC50 in series [2] stood at 1.34 ± 0.03 µM. Besides, in series [3], the “activity against the MCF-7 cell line, in words” value is “good antitumor activity” and the IC50 stood at 30.77 ± 0.29 µM. This compound yielded an IC50 in series [4] of 44 ± 1.89 µM. Besides, in series [5], the “activity against the SCC-15 cell line, in words” value was “considerable cytotoxic activity” and the IC50 came to 34.9 ± 0.34 µM. Also, in series [6], the “activity against the HepG2 cell line, in words” value is on record as “considerable cytotoxic activity” and the midpoint of inhibition, the IC50, lay at 36.9 ± 0.49 µM. In series [7], the IC50 is less than 40 µM and the “anticancer / antiproliferative activity over the cell line panel, in words” value is recorded as “comparable antiproliferative activity against four cancer cell lines compared with compound Indo 5”.

`Cc1cccc(C[S+]([O-])/C=C2\C(=O)Nc3ccccc32)c1` (centres unmarked) [Compound 6m, (Z)-3-(((3-Methylbenzyl)sulfinyl)methylene)indolin-2-one] yielded a melting point of 174 to 175 °C. The IC50 in series [1] is 27 ± 1.2 µM. In series [2], this compound yielded an IC50 of 3.85 ± 0.09 µM. The same compound had an IC50 in series [3] of 41.4 ± 2.2 µM. In series [4], the midpoint of inhibition, the IC50, lay at 79.32 ± 0.79 µM. Besides, in series [5], the IC50 worked out at 50.3 ± 1.51 µM. The compound also returned a concentration for half-maximal inhibition (IC50) in series [6] of 36 ± 2.13 µM.

Consider `O=C1Nc2ccccc2/C1=C/[S+]([O-])Cc1ccccc1Cl` (centres unmarked) [Compound 6e, (Z)-3-(((2-Chlorobenzyl)sulfinyl)methylene)indolin-2-one], for which the melting point lay within 202 to 203 °C. Besides, inhibition in series [1] was half-maximal at 70.9 ± 1.17 µM (IC50). The same compound registered a 50% inhibitory concentration (IC50) in series [2] of 5.09 ± 0.12 µM. In series [3], this compound came in with an IC50 greater than 100 µM. Moreover, the IC50 in series [4] is greater than 100 µM. In series [5], this compound registered an IC50 greater than 100 µM. This compound gave an IC50 in series [6] of 96.83 ± 0.95 µM.

For the compound `O=C1Nc2ccccc2/C1=C/[S+]([O-])Cc1ccccc1F` (centres unmarked) [Compound 6b, (Z)-3-(((2-Fluorobenzyl)sulfinyl)methylene)indolin-2-one], the melting point fell in the range of 183 to 184 °C. In series [1], inhibition was half-maximal at 14 ± 0.27 µM (IC50) and the “activity against the HeLa cell line, in words” value is recorded as “stronger activity than Indo 5”. In series [2], the IC50 is 3.74 ± 0.19 µM. Besides, the IC50 in series [3] was 49.1 ± 1.08 µM. Besides, the IC50 in series [4] was greater than 100 µM. In addition, the IC50 in series [5] is greater than 100 µM. In series [6], this compound registered an IC50 of 47.8 ± 1.47 µM.

The values above are taken from article PMC6150246, “Design, Synthesis and Preliminary Biological Evaluation of Novel Benzyl Sulfoxide 2-Indolinone Derivatives as Anticancer Agents” (Molecules : A Journal of Synthetic Chemistry and Natural …, 2017).
